# Substitutions are numbered along the chain they refer to. Several values for one entry are separate records, joined by “and”; a condition that tells them apart may be missing. Equal entries are not always repeated. Where two headings read alike, the source gives them in different places.
# Assays:
# [1] = molecular target: T1, AR(T877A) (Homo sapiens, UniProt P10275, T878A)
# T1 sequence (P10275 1-920 T878A): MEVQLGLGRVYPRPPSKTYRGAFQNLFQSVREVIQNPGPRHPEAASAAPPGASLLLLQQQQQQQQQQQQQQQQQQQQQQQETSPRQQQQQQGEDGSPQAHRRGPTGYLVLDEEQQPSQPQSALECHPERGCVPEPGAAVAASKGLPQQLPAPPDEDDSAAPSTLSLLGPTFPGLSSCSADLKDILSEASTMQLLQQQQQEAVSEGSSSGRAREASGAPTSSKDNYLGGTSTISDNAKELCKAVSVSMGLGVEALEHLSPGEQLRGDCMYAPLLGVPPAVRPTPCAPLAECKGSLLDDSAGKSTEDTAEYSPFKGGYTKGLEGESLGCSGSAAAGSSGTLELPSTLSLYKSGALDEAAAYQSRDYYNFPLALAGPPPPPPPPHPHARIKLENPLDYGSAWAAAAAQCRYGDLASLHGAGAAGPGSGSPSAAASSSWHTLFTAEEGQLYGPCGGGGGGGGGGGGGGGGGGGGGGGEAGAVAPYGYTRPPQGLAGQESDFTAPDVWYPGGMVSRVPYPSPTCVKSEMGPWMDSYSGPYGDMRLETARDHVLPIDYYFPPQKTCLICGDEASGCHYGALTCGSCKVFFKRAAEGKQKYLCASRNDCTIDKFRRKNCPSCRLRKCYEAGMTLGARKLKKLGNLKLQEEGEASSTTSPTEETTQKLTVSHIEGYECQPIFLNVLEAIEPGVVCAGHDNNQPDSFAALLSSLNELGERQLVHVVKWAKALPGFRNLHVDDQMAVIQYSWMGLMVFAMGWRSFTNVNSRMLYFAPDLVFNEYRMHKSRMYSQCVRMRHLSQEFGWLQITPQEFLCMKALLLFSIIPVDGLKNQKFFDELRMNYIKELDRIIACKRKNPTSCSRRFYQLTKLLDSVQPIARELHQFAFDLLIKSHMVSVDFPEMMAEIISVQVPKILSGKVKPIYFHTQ
# [2] = test system: VCaP cells; test: VCaP proliferation assay (WST-1); type: cell-based; details: Homo sapiens, 96 h
# [3] = molecular target: T2, AR(W741L) (Homo sapiens, UniProt P10275, W742L)
# T2 sequence (P10275 1-920 W742L): T1 sequence (P10275 1-920 T878A) with W742L, A878T
# [4] = molecular target: T3, AR(F876L) (Homo sapiens, UniProt P10275, F877L)
# T3 sequence (P10275 1-920 F877L): T1 sequence (P10275 1-920 T878A) with F877L, A878T
# [5] = test system: AR nuclear translocation in HS-HEK293 cells; details: 0.3 or 1.0 μM test compound with 0.3 nM testosterone, HS-HEK293 cells
# [6] = design: method as in PMID 15470213; details: CRPC ref 7; cited from earlier work
# [7] = Brain penetrance, brain/plasma ratio from AUC0-24; type: in vivo; details: male, BALB/c or Balb/cOlaHsd nude, mouse, mice, single oral dose of 10 mg/kg, based on AUC0–24
# [8] = test system: subcutaneous VCaP tumors; test: Castration-resistant VCaP xenograft, tumor volume; type: in vivo, castrated nude mice
# [9] = Pharmacokinetic parameters in mice after 7 days oral dosing; type: in vivo; details: male, BALB/c or Balb/cOlaHsd nude, mouse, plasma, 20 mg/kg qd oral, read-out: AUC24
# Description: Control mice received vehicle. […] Brain samples (without olfactory bulbs and medulla oblongata) from each group and time point were pooled and homogenized before the analysis. […] Plasma and brain concentration vs. time were evaluated by noncompartmental analysis using WinNonlin® Professional v. 5.2 software (Pharsight Corporation). Brain/plasma ratios were calculated based on AUC0–24 values for plasma and brain.
# [10] = Body weight of mice bearing subcutaneous VCaP xenograft tumors; type: in vivo, castrated nude mice; details: enzalutamide 20 mg/kg qd oral, individual animals, vs BW before treatment
# Description: BALB/c nude male mice (7 weeks old from Charles River, Germany) were subcutaneously injected with 2 million VCaP cells in 100 μL of RPMI-1640 medium and Matrigel (BD) (1:1). Tumor growth was monitored twice weekly by caliper measurements. The volume of the tumor was calculated according to the formula W^2 × L/2 (mm^3), where W is the shorter and L the longer diameter of the tumor. When the average tumor volume reached ~200 mm^3, mice were castrated or SHAM-operated under Avertin anesthesia. […] For all in vivo studies, Macrocol® (Merck) + propylene glycol +5% glucose (50:30:20, v/v/v) was used as a vehicle.
# [11] = test system: serum testosterone; test: Serum testosterone in intact nude mice bearing orthotopic VCaP tumors; type: in vivo; details: 20 mg/kg qd oral, 3 weeks, p < 0.05 vs vehicle
# Description: One million VCaP cells in 20 μL of RPMI-1640 medium were orthotopically injected into the dorsal prostate lobes of athymic nude male mice (7 weeks old from Harlan Winkelman, France). Tumor growth was followed by measuring serum PSA (ProStatus™ PSA EQM Kits, Wallac, Finland). […] At autopsy, blood samples were collected by heart puncture, clotted overnight at +4 °C, and centrifuged. For serum testosterone determination, 25-μL aliquots were extracted twice with 2 mL of diethyl ether and evaporated under nitrogen to dryness. The residues were reconstituted in PBS and measured using a standard radioimmunoassay as described previously.
structure (smiles),measurement,setting,value
CC(=O)c1cc(C(=O)N[C@@H](C)Cn2ccc(-c3ccc(C#N)c(Cl)c3)n2)n[nH]1 [ORM-15341],functional activity (agonist/antagonist) on AR(T877A),[1],full antagonists
same,IC50,"[2]; 0.1 nM mibolerone, steroid-depleted medium, 4 days, WST-1, read-out: IC50, androgen-induced VCaP cell proliferation",0.17 µM
same,functional activity (agonist/antagonist) on AR(W741L),[3],full antagonists
same,functional activity (agonist/antagonist) on AR(F876L),[4],full antagonists
same,effect on testosterone-induced nuclear translocation of AR,[5],inhibit
CC(=O)O[C@@]12CO[C@@H]1C[C@H](O)[C@@]1(C)C(=O)[C@H](O)C3=C(C)[C@@H](OC(=O)[C@H](O)[C@@H](NC(=O)OC(C)(C)C)c4ccccc4)C[C@@](O)([C@@H](OC(=O)c4ccccc4)[C@H]21)C3(C)C [docetaxel],median prolongation of survival,[6],2.9 months
"CNC(=O)c1ccc(N2C(=S)N(c3cnc(C#N)c(C(F)(F)F)c3)C(=O)C23CCC3)cc1F [ARN-509, reference compound]",Kp,[7],0.62
same,IC50,"[2]; read-out: IC50, androgen-induced VCaP cell proliferation",0.42 µM
"CC(O)(CS(=O)(=O)c1ccc(F)cc1)C(=O)Nc1ccc(C#N)c(C(F)(F)F)c1 (stereo not shown) [bicalutamide, reference compound]",antitumor activity,"[8]; 20 mg/kg per os, data not shown",does not have any antitumor activity
same,effect on testosterone-induced nuclear translocation of AR,[5],failed to block
"CNC(=O)c1ccc(N2C(=S)N(c3ccc(C#N)c(C(F)(F)F)c3)C(=O)C2(C)C)cc1F [Enzalutamide, enzalutamide, reference compound]",antitumor activity (tumor volume),"[8]; 20 mg/kg oral once daily, 37 days, p < 0.05 vs castrated untreated mice",inhibition of tumor growth
same,AUC,[9],479 µg·h/mL
same,Change in body weight (%) d 3,[10],0.0% (2×) and -6.2% and -2.7% and -0.6% and -0.5% and -2.0% and 1.3% and 0.5%
same,Change in body weight (%) d 9,[10],0.4% and 1.7% (2×) and 3.6% and 0.6% and 1.3% and 2.9% and 1.5% and 0.5%
same,Change in body weight (%) d 16,[10],1.8% (2×) and 1.2% and 3.0% and 2.6% and 6.8% and 5.6% and 5.5% and 8.7%
same,Change in body weight (%) d 23,[10],1.0% and -4.8% and -1.4% and 1.8% and -2.2% and -0.9% and -2.9% and -3.0%
same,Change in body weight (%) d 30,[10],2.1% and -4.0% and -2.7% and 3.0% and 0.9% and 1.9% and -2.0% and -0.9%
same,Change in body weight (%) d 37,[10],5.1% and -0.9% and 0.5% (2×) and 3.6% and 3.5% and 7.2% and 1.3%
same,effect on serum testosterone levels,[11],increased significantly

# From publication PMC4490394 (Scientific Reports, 2015)
